Experimental data as given in PMC8151276, “An Integrated Approach toward NanoBRET Tracers for Analysis of GPCR Ligand Engagement” (Molecules, 2021).

Molecular target: T1, BDKRB2 (Homo sapiens, UniProt P30411)
T1 construct: purchased Promega (in-house HiBiT-GPCR construct library, NanoBRET)
T1 sequence (P30411 1-391): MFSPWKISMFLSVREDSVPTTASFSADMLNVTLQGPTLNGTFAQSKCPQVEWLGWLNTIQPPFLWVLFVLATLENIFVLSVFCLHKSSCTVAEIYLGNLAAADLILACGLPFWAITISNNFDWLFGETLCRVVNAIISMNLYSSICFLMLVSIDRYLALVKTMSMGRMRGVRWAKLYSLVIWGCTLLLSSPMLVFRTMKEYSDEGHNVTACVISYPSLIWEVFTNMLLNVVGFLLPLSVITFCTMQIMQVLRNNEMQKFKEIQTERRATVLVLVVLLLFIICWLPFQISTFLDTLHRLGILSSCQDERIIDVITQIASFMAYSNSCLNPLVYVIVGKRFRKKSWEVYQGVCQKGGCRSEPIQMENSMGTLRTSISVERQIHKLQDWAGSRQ
Experiment: NanoBRET screen HiBiT-BDKRB2 in HEK293
Assay type: binding
Description: Each tracer candidate was screened across the entire library of HiBiT-GPCR constructs using NanoBRET as the detection modality. As depicted in Figure 4A, the specificity of interactions was evaluated through decrease in BRET due to competitive displacement of a bound tracer by excess parental compound. Each tracer was analyzed for binding to each HiBiT-GPCR fusion in the absence and in the presence of competing parental compound. Briefly, HEK293 cells were transfected with HiBiT-GPCR constructs diluted into promoterless DNA to reduce expression and maximize translocation to the cell surface. Each tracer candidate was then screened at concentrations of 1 μM and 0.1 μM across cells expressing these fusions. Cells were treated for 1.5 h with tracer either alone or in the presence of 20 μM competing parental compound (i.e., control). BRET was measured upon addition of purified LgBiT and subsequent complementation with HiBiT genetically fused to a GPCR. The specificity of interactions was assessed through a decrease in BRET signal due to competitive displacement of the bound tracer. To further gauge the robustness of these interactions, the fold response over the control (i.e., BRETtracer/BRETcontrol) was calculated. We chose a 1.5-fold response, which translates to ≥7-fold signal over noise as the minimal threshold required to score an interaction as positive. […]. Below we highlight the screening results obtained for our exemplary fluorescent tracers based on Clozapine, Amitriptyline and AZD1283.
HiBiT-GPCR DNA constructs were diluted in 10 mM Tris pH 8 to a final concentration of 0.01 μg/μL, arrayed in 96-well plates and stored at −20 °C. For transfection, HEK293 cells were suspended in Opti-MEM (without phenol red) supplemented with 2% fetal bovine serum (Seradigm) and 100 units/mL penicillin–streptomycin (Gibco) at a final concentration of 220,000 cells/mL and dispensed into white 96-well plates at 90 μL/well. Subsequent transfections and screens were carried using an Agilent Bravo Automated Liquid Handling Platform. First, the 96-well HiBiT DNA arrays were diluted 25-fold in Opti-MEM (without serum or phenol red) to a final concentration of 0.0004 μg/μL and 20 μL of the diluted DNAs were transferred into new 96-well plates. Next, promoterless carrier DNA (1 μg/μL) was diluted 25-fold (0.04 μg/μL) and then dispensed into the diluted arrays at 20 μL/well. Following brief mixing, Viafect transfection reagent (Promega) diluted 16-fold into Opti-MEM was dispensed into the plates at 40 μL/well. After mixing by pipetting, plates were incubated for 10 min on the pipetting station deck. The DNA-transfection reagent complexes were then added to plates containing cells. To facilitate the screen, 10 μL of DNA-transfection reagent complexes were added in duplicates to the top 4 and bottom 4 rows, resulting in two identical 48-well arrays per plate. Plates with transfected cells were incubated for 18–20 h at 37 °C/5% CO2. A screen of each tracer across the entire library using two different concentrations requires duplicate plates of transfected cells. Depending on the number of tracers being screened, transfections can be scaled up using the same ratios. The next day, for each tracer, four 20× screening solutions in tracer dilution buffer (Promega) were prepared: two duplicates at final concentration of 20 μM and two duplicates at a final concentration of 2 μM. A competing unmodified compound was added to one of each duplicate at a final concentration of 400 μM. The four resulting solutions were diluted 4-fold in Opti-MEM without serum or phenol red to generate 5× solutions (5 µM and 0.5 µM tracer +/− 100 μM competing compound). To screen the library, a BioTek MultiFlo FX liquid dispenser was used to dispense 22.5 µL of tracer solution to the top 4 rows and 22.5 µL tracer + competing compound solution to the 4 bottom rows. Plates were briefly mixed on an orbital shaker and incubated for 1.5 h at room temperature. […]

Row | Structure (SMILES) | NanoBRET Fold Response (BDKRB2, tracer 0.1μM) | NanoBRET Fold Response (BDKRB2, tracer 1μM) | also measured
1 | CCOC(=O)c1cc(C#N)c(N2CCC(C(=O)NS(=O)(=O)Cc3ccccc3/C=C/C(=O)NCCNC(=O)CCc3ccc4n3[B-](F)(F)[N+]3=C(c5ccc[nH]5)C=CC3=C4)CC2)nc1C [AZD1283-1-NB590] |  |  | NanoBRET Fold Response (BDKRB2, 0.1μM): 1.06; NanoBRET Fold Response (BDKRB2, 1μM): 1.04
2 | N#CN=C(NCCCOc1cccc(CN2CCCCC2)c1)NCCNC(=O)CCOCCOCCOCCOCCNC(=O)CCc1ccc2n1[B-](F)(F)[N+]1=C(c3ccc[nH]3)C=CC1=C2 [Aminopotentidine-2-NB590] | 1.00 | 1.01 | 
3 | CN(C)CCC=C1c2ccccc2CCc2ccc(C(=O)NCCNC(=O)CCOCCOCCOCCOCCNC(=O)CCc3ccc4n3[B-](F)(F)[N+]3=C(c5ccc[nH]5)C=CC3=C4)cc21 [Amitriptyline-a-2-NB590] |  |  | NanoBRET Fold Response (tracer at 0.1μM): 1.01; NanoBRET Fold Response (tracer at 1μM): 1.04
4 | CN(C)CCC=C1c2ccccc2CCc2ccc(C(=O)NCCNC(=O)CCOCCOCCOCCOCCNC(=O)CCc3ccc4n3[B-](F)(F)[N+]3=C(c5ccc[nH]5)C=CC3=C4)cc21 [Amitriptyline-b-2-NB590] |  |  | NanoBRET Fold Response (tracer at 0.1μM, listed as amitriptyline-b-2-NB590): 1.05; NanoBRET Fold Response (tracer at 1μM, listed as amitriptyline-b-2-NB590): 1.12
5 | COc1ccc2c(n1)c(CCNC(C)=O)cn2CCNC(=O)CCc1ccc2n1[B-](F)(F)[N+]1=C(c3ccc[nH]3)C=CC1=C2 [Azamelatonin-1-NB590] |  |  | NanoBRET Fold Response (0.1μM tracer): 1.00; NanoBRET Fold Response (1μM tracer): 1.05
6 | COc1ccc2[nH]c(-c3ccc(CNC(=O)CCOCCOCCOCCOCCNC(=O)CCc4ccc5n4[B-](F)(F)[N+]4=C(c6ccc[nH]6)C=CC4=C5)cc3)c(CCNC(C)=O)c2n1 [AzomelatoninICO9-2-NB590] |  |  | NanoBRET Fold Response (0.1μM tracer): 0.96; NanoBRET Fold Response (1μM tracer): 0.93
7 | O=C(CCOCCOCCOCCOCCNC(=O)CCc1ccc2n1[B-](F)(F)[N+]1=C(c3ccc[nH]3)C=CC1=C2)NCCCN1CCN(C2=Nc3cc(Cl)ccc3Nc3ccccc32)CC1 [Clozapine-a-2-NB590] |  |  | NanoBRET Fold Response (BDKRB2, 0.1μM tracer): 1.02; NanoBRET Fold Response (BDKRB2, 1μM tracer): 1.13
8 | CN1CCN(C2=Nc3cc(Cl)ccc3Nc3ccc(CNC(=O)CCOCCOCCOCCOCCNC(=O)CCc4ccc5n4[B-](F)(F)[N+]4=C(c6ccc[nH]6)C=CC4=C5)cc32)CC1 [Clozapine-b-2-NB590] |  |  | NanoBRET Fold Response (BDKRB2, 0.1μM tracer): 1.00; NanoBRET Fold Response (BDKRB2, 1μM tracer): 1.00
9 | CN1CCN(C2=Nc3cc(Cl)ccc3N(CC(=O)NCCOCCOCCOCCOCCNC(=O)CCc3ccc4n3[B-](F)(F)[N+]3=C(c5ccc[nH]5)C=CC3=C4)c3ccccc32)CC1 [Clozapine-c-2-NB590] |  |  | NanoBRET Fold Response (BDKRB2, 0.1μM tracer): 1.00; NanoBRET Fold Response (BDKRB2, 1μM tracer): 1.03
10 | O=C(CCOCCOCCOCCOCCNC(=O)CCc1ccc2n1[B-](F)(F)[N+]1=C(c3ccc[nH]3)C=CC1=C2)NCCCN1CCN(C2=Nc3ccccc3Oc3ccc(Cl)cc32)CC1 [Loxapine-a-2-NB590] | 1.08 | 1.16 | 
11 | COc1ccccc1N1CCN(CCCCN2C(=O)c3ccc(CNC(=O)CCOCCOCCOCCOCCNC(=O)CCc4ccc5n4[B-](F)(F)[N+]4=C(c6ccc[nH]6)C=CC4=C5)cc3C2=O)CC1 [NAN-190-2-NB590] | 1.08 | 0.98 | 
12 | COc1ccccc1N1CCN(CCCCN2C(=O)c3ccc(CNC(=O)CCOCCNC(=O)c4ccc(CNC(=O)CCc5ccc6n5[B-](F)(F)[N+]5=C(c7ccc[nH]7)C=CC5=C6)cc4)cc3C2=O)CC1 [NAN-190-3-NB590] | 0.97 | 0.88 | 
13 | O=C(CCc1ccc2n1[B-](F)(F)[N+]1=C(c3ccc[nH]3)C=CC1=C2)NCc1ccc(C(=O)NCCOCCC(=O)N[C@@H]2CC[C@@]3(O)[C@H]4Cc5ccc(O)c6c5[C@@]3(CCN4CC3CC3)[C@H]2O6)cc1 [Naltrexone-3-NB590] | 1.07 | 0.94 | 
14 | Cc1cc2c(s1)Nc1ccccc1N=C2N1CCN(CCCNC(=O)CCOCCOCCOCCOCCNC(=O)CCc2ccc3n2[B-](F)(F)[N+]2=C(c4ccc[nH]4)C=CC2=C3)CC1 [Olanzapine-a-2-NB590] | 0.97 | 1.06 | 
15 | O=C(CCc1ccc2n1[B-](F)(F)[N+]1=C(c3ccc[nH]3)C=CC1=C2)NCc1ccc(C(=O)NCCOCCOCCNCC(O)COc2cccc3ccccc23)cc1 (stereo not shown) [Propranolol-3-NB590] |  |  | NanoBRET Fold Response (BDKRB2, 0.1μM): 1.04; NanoBRET Fold Response (BDKRB2, 1μM): 1.07
16 | O=C(CCc1ccc2n1[B-](F)(F)[N+]1=C(c3ccc[nH]3)C=CC1=C2)NCCOCCOCCNC(=O)OCCOCCN1CCN(C2=Nc3ccccc3Sc3ccccc32)CC1 [Quetiapine-a-2-NB590] | 1.11 | 0.81 | 
17 | Cc1nc2n(c(=O)c1CCN1CCC(c3noc4cc(F)ccc34)CC1)CCCC2OC(=O)NCCOCCOCCOCCOCCNC(=O)CCc1ccc2n1[B-](F)(F)[N+]1=C(c3ccc[nH]3)C=CC1=C2 (stereo not shown) [Risperidone-2-NB590] | 0.92 | 0.96 | 
18 | CC(C)N(CC[C@H](c1ccccc1)c1cc(CCNC(=O)CCOCCOCCOCCOCCNC(=O)CCc2ccc3n2[B-](F)(F)[N+]2=C(c4ccc[nH]4)C=CC2=C3)ccc1O)C(C)C [Tolterodine-2-NB590] | 0.96 | 0.95 | 
19 | CC(C)N(CC[C@H](c1ccccc1)c1cc(CCNC(=O)c2ccc(CNC(=O)CCc3ccc4n3[B-](F)(F)[N+]3=C(c5ccc[nH]5)C=CC3=C4)cc2)ccc1O)C(C)C [Tolterodine-BZ-NB590] | 1.04 | 1.08 | 
20 | CCCn1c(=O)c2[nH]c(-c3ccc(OCC(=O)NCCNC(=O)CCOCCNC(=O)c4ccc(CNC(=O)CCc5ccc6n5[B-](F)(F)[N+]5=C(c7ccc[nH]7)C=CC5=C6)cc4)cc3)nc2n(CCC)c1=O [XAC-3-NB590] | 1.00 | 1.14 | 
